# US11690850B2, “Inhibitors of receptor interacting protein kinase I for the treatment of disease” (Board of Regents, The University of Texas System, priority 2019, dated 2023)
# Values joined by “and” are separate entries in the source; they are usually repeats but may differ in a detail not shown here. Identical values can stand only once.
# Biological target: RIPK1 (Homo sapiens (Human), UniProt Q13546)
# Assay: ADP-Glo Kinase Assay
# Assay type: biochemical
# Settings: 5 nM RIPK1 protein, 50 μM ATP, 6 hr reaction, average value across multiple runs
# Procedure: In order to measure RIPK1 activity the ADP-Glo kinase assay (Promega, Catalog #V7002) was used to measure the conversion of ATP to ADP. This enzymatic assay was performed in a 384-well white, Optiplate (Perkin Elmer, Catalog #6007299) with assay buffer consisting of 50 mM HEPES pH 7.5 (Gibco, Catalog #15630-080), 50 mM NaCl (Teknova, Catalog #S0252), 30 mM MgCl2 (Ambion, Catalog #AM9530G), 1 mM DTT (Santa Cruz Biotechnology, Catalog #sc-29089), 0.05% BSA (Sigma, Catalog #A3059-50G) and 0.02% CHAPS (Sigma, Catalog #C5070-5G). Stock solutions of the test compounds were prepared in 100% DMSO (Sigma, Catalog #D2650) and serially diluted 1:3 using 100% DMSO. Compounds were additionally diluted 1:40 in assay buffer, and 2 μL/well were transferred to the assay plate. 4 μL/well (final concentration of 5 nM) of RIPK1 protein (SignalChem, Catalog #R07-11G-05) diluted in assay buffer and added to the assay plate followed by a 10 minute preincutation at room temperature. 4 μL/well of ATP (Promega, Catalog #V7002) (final concentration of 50 μM) diluted in assay buffer were then added to the assay plate followed by a 6 hr reaction time. Final concentrations of RIPK1 and ATP refer to a 10 μL volume. Luminescence was measured using a BioTek Synergy™ NEO plate reader. IC50 values were calculated using a four-parameter logistic curve fit using Genedata Screener software. Results are shown below in Table 4, where the average value across multiple runs is given.
# Chain of RIPK1 (Q13546 1-327): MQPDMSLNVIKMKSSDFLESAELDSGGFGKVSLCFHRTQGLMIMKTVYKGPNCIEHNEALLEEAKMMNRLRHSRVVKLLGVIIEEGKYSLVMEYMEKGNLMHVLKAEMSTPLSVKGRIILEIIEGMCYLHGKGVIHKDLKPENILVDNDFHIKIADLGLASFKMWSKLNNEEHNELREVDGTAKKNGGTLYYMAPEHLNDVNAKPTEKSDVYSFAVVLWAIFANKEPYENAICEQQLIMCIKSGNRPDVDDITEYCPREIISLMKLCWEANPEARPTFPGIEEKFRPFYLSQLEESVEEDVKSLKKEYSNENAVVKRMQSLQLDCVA
row,SMILES,IC50
1,"Cc1cc(C)c2nc(NC(=O)c3nn(-c4ccccc4)c(C)cc3=O)sc2c1 [Example 87, N-(4,6-dimethylbenzo[d]thiazol-2-yl)-6-methyl-4-oxo-1-phenyl-1,4-dihydropyridazine-3-carboxamide]",20.8 µM
2,"COCc1cc(=O)c(C(=O)Nc2cccc(Cl)c2F)nn1C [Example 88, N-(3-chloro-2-fluorophenyl)-6-(methoxymethyl)-1-methyl-4-oxo-1,4-dihydropyridazine-3-carboxamide]",33.3 µM
3,"Cc1cc(=O)c(C(=O)Nc2c(C(C)C)nn(C)c2C(C)C)nn1-c1ccccc1 [Example 89, N-(3,5-diisopropyl-1-methyl-1H-pyrazol-4-yl)-6-methyl-4-oxo-1-phenyl-1,4-dihydropyridazine-3-carboxamide]",18.6 µM
4,"Cc1cc(=O)c(C(=O)Nc2c(C(C)C)n[nH]c2C(C)C)nn1-c1ccccc1 [Example 90, N-(3,5-diisopropyl-1H-pyrazol-4-yl)-6-methyl-4-oxo-1-phenyl-1,4-dihydropyridazine-3-carboxamide]",41.9 µM
5,"Cc1cc(=O)c(C(=O)Nc2cc(F)cc(F)c2)nn1-c1ccccc1 [Example 92, N-(3,5-difluorophenyl)-6-methyl-4-oxo-1-phenyl-1,4-dihydropyridazine-3-carboxamide]",0.414 µM
6,"Cc1cc(=O)c(C(=O)Nc2cccc(F)c2)nn1-c1ccccc1 [Example 93, N-(3-fluorophenyl)-6-methyl-4-oxo-1-phenyl-1,4-dihydropyridazine-3-carboxamide]",0.282 µM
7,"Cc1ccnc(NC(=O)c2nn(-c3ccccc3F)c(C)cc2=O)c1 [Example 94, 1-(2-fluorophenyl)-6-methyl-N-(4-methylpyridin-2-yl)-4-oxo-1,4-dihydropyridazine-3-carboxamide]",6.35 µM
8,"Cc1cccc(NC(=O)c2nn(-c3ccccc3F)c(C)cc2=O)n1 [Example 95, 1-(2-fluorophenyl)-6-methyl-N-(6-methylpyridin-2-yl)-4-oxo-1,4-dihydropyridazine-3-carboxamide]",3.94 µM
9,"Cc1cc(=O)c(C(=O)Nc2ccc(Cl)cn2)nn1-c1ccccc1F [Example 100, N-(5-chloropyridin-2-yl)-1-(2-fluorophenyl)-6-methyl-4-oxo-1,4-dihydropyridazine-3-carboxamide]",43.8 µM
10,"CCn1c(NC(=O)c2nn(-c3ccccc3)c(C)cc2=O)nc2ccccc21 [Example 101, N-(1-ethyl-1H-benzo[d]imidazol-2-yl)-6-methyl-4-oxo-1-phenyl-1,4-dihydropyridazine-3-carboxamide]",4.64 µM
11,"Cc1cc(=O)c(C(=O)Nc2ccccn2)nn1-c1ccccc1Cl [Example 102, 1-(2-chlorophenyl)-6-methyl-4-oxo-N-(pyridin-2-yl)-1,4-dihydropyridazine-3-carboxamide]",2.37 µM
12,"Cc1cc(=O)c(C(=O)Nc2ccccn2)nn1-c1ccc(Cl)cc1 [Example 103, 1-(4-chlorophenyl)-6-methyl-4-oxo-N-(pyridin-2-yl)-1,4-dihydropyridazine-3-carboxamide]",5 µM
13,"Cc1noc(C(C)NC(=O)c2nn(-c3ccccc3)c(C)cc2=O)n1 (stereo not drawn) [Example 105, 6-methyl-N-(1-(3-methyl-1,2,4-oxadiazol-5-yl)ethyl)-4-oxo-1-phenyl-1,4-dihydropyridazine-3-carboxamide]",36.9 µM
14,"Cc1cccc(NC(=O)c2nn(-c3ccccc3F)c(C)cc2=O)c1 [Example 107, 1-(2-fluorophenyl)-6-methyl-4-oxo-N-(m-tolyl)-1,4-dihydropyridazine-3-carboxamide]",20.2 µM
15,"Cc1cc(=O)c(C(=O)N2CCC(Oc3ccccn3)C2)nn1-c1ccccc1 (stereo not drawn) [Example 113, 6-methyl-1-phenyl-3-(3-(pyridin-2-yloxy)pyrrolidine-1-carbonyl)pyridazin-4(1H)-one]",29.5 µM
16,"Cc1cc(=O)c(C(=O)Nc2c(C(C)C)cccc2C(C)C)nn1-c1ccccc1 [Example 117, N-(2,6-diisopropylphenyl)-6-methyl-4-oxo-1-phenyl-1,4-dihydropyridazine-3-carboxamide]",1.19 µM

# Results, then the compound that gave them:
row,IC50,SMILES
1,38.8 µM,"Cc1cc(=O)c(C(=O)NC(C)(C)C)nn1-c1ccccc1 [Example 85, N-(tert-butyl)-6-methyl-4-oxo-1-phenyl-1,4-dihydropyridazine-3-carboxamide]"
2,17.6 µM,"Cc1nocc1NC(=O)c1nn(-c2ccccc2)c(C)cc1=O [Example 86, 6-methyl-N-(3-methylisoxazol-4-yl)-4-oxo-1-phenyl-1,4-dihydropyridazine-3-carboxamide]"
3,5.31 µM,"Cc1cc(=O)c(C(=O)NC2CC2)nn1-c1ccccc1 [Example 91, N-cyclopropyl-6-methyl-4-oxo-1-phenyl-1,4-dihydropyridazine-3-carboxamide]"
4,6.49 µM,"Cc1cc(=O)c(C(=O)NC(C)C2CC2)nn1-c1ccccc1 (stereo not drawn) [Example 96, N-(1-cyclopropylethyl)-6-methyl-4-oxo-1-phenyl-1,4-dihydropyridazine-3-carboxamide]"
5,11.6 µM,"Cc1ccc(NC(=O)c2nn(-c3ccccc3)c(C)cc2=O)cc1 [Example 97, 6-methyl-4-oxo-1-phenyl-N-(p-tolyl)-1,4-dihydropyridazine-3-carboxamide]"
6,3.57 µM,"Cc1cc(=O)c(C(=O)NC(c2ccccc2)C2CC2)nn1-c1ccccc1 (stereo not drawn) [Example 98, N-(cyclopropyl(phenyl)methyl)-6-methyl-4-oxo-1-phenyl-1,4-dihydropyridazine-3-carboxamide]"
7,3.49 µM,"Cc1cccc(NC(=O)c2nn(-c3ccccc3)c(C)cc2=O)n1 [Example 99, 6-methyl-N-(6-methylpyridin-2-yl)-4-oxo-1-phenyl-1,4-dihydropyridazine-3-carboxamide]"
8,8.25 µM,"Cc1cc(=O)c(C(=O)NCC2CCC2)nn1-c1ccccc1 [Example 104, N-(cyclobutylmethyl)-6-methyl-4-oxo-1-phenyl-1,4-dihydropyridazine-3-carboxamide]"
9,1.78 µM,"Cc1cc(=O)c(C(=O)Nc2ccccn2)nn1-c1ccccc1 [Example 106, 6-methyl-4-oxo-1-phenyl-N-(pyridin-2-yl)-1,4-dihydropyridazine-3-carboxamide]"
10,28.7 µM,"Cc1cc(=O)c(C(=O)Nc2ccccc2F)nn1-c1ccccc1 [Example 108, N-(2-fluorophenyl)-6-methyl-4-oxo-1-phenyl-1,4-dihydropyridazine-3-carboxamide]"
11,28.1 µM,"Cc1cc(=O)c(C(=O)Nc2ccc(F)cc2)nn1-c1ccccc1 [Example 109, N-(4-fluorophenyl)-6-methyl-4-oxo-1-phenyl-1,4-dihydropyridazine-3-carboxamide]"
12,1.59 µM,"C#CCNC(=O)c1nn(-c2ccccc2)c(C)cc1=O [Example 110, 6-methyl-4-oxo-1-phenyl-N-(prop-2-yn-1-yl)-1,4-dihydropyridazine-3-carboxamide]"
13,39.1 µM,"Cc1cc(NC(=O)c2nn(-c3ccccc3)c(C)cc2=O)sn1 [Example 111, 6-methyl-N-(3-methylisothiazol-5-yl)-4-oxo-1-phenyl-1,4-dihydropyridazine-3-carboxamide]"
14,0.791 µM,"Cc1noc(C2CC2)c1NC(=O)c1nn(-c2ccccc2)c(C)cc1=O [Example 112, N-(5-cyclopropyl-3-methylisoxazol-4-yl)-6-methyl-4-oxo-1-phenyl-1,4-dihydropyridazine-3-carboxamide]"
15,5.6 µM and 7.5 µM,"Cc1ccnc(NC(=O)c2nn(-c3ccccc3)c(C)cc2=O)c1 [Example 114, 6-methyl-N-(4-methylpyridin-2-yl)-4-oxo-1-phenyl-1,4-dihydropyridazine-3-carboxamide]"
16,2.92 µM and 3.47 µM,"Cc1cc(=O)c(C(=O)Nc2ccncc2)nn1-c1ccccc1 [Example 115, 6-methyl-4-oxo-1-phenyl-N-(pyridin-4-yl)-1,4-dihydropyridazine-3-carboxamide]"
17,8.52 µM and 17.4 µM,"Cc1cc(=O)c(C(=O)Nc2cnns2)nn1-c1ccccc1 [Example 116, 6-methyl-4-oxo-1-phenyl-N-(1,2,3-thiadiazol-5-yl)-1,4-dihydropyridazine-3-carboxamide]"
